Source: PMC11979881, “Engineering Multifunctional Peptide-Decorated Nanofibers for Targeted Delivery of Temozolomide across the Blood–Brain Barrier” (Molecular Pharmaceutics, 2025)

Key:
[1] = test system: 3D U-87; test: Annexin V-FITC/Propidium Iodide assay, 3D U-87; assay type: cell-based, human; conditions: TMZ 10 μM
Description: (§1) To identify apoptotic and necrotic cells, Annexin V-FITC/Propidium Iodide (PI) assay was performed according to the manufacturer’s protocol. Annexin V highlights apoptotic cells by binding to phosphatidylserine (PS) on their membranes . Propidium Iodide (PI) binds to the DNA of necrotic cells, as it is not permeable to the cell membrane. Cells lose the membrane integrity, Annexin V-FITC/PI can enter the cells. After the 3D cell treatment, cells were stained with Annexin V-FITC/PI for 20 min in the dark. After washing with PBS, nuclei were labeled with 4′,6-diamidino-2-phenylindole (DAPI) for 5 min. Images of the 3D cells were acquired using the JuLi Stage_RealTime Cell History Recorder microscope with a 10x objective, using different channels: RFP, GFP, and DAPI. The images were corrected for brightness and contrast using Fiji software and analyzed to evaluate morphological parameters after treatments. For each experimental condition, three different assays were repeated.

[2] = test system: 3D U-118; test: PrestoBlue viability on 3D dynamic in vitro BBB model, 3D U-118; assay type: cell-based, human; conditions: 3D U-118 in lower chamber, injection into upper chamber, TMZ 10 μM, 72 h
Description: (§2) To evaluate the effects of NF-TMZ on fluid-dynamically cultured 3D GBM cells, we set up different bioreactors containing HBMEC and hPC-PL cells in the upper chamber and 3D U-118 cells or 3D U-87 cells in the lower chamber. NF-TMZ (10 μM), NF-t, and free TMZ (10 μM) were injected into the upper chamber, and their effects were evaluated after 72 h using the PrestoBlue viability assay. Briefly, 72 h after treatment, spheroids in the lower chamber were taken out and placed inside 48-well plates, and the PrestoBlue viability reagent (1:10) was added for 1.5 h. The absorbance was quantified using a Bio-Tek Synergy HT Microplate Reader. The control bioreactor was performed with HBMEC and hPC–PL cells in the upper chamber; and 3D U-118 MG cells and 3D U-87 MG cells in the lower chamber without treatment.

[3] = test system: 3D U-87; test: PrestoBlue cell viability, 3D U-87 spheroids; assay type: cell-based, human; conditions: 3D U-87, 10 μM TMZ, 72 h, treated every 24 h
Description: Once the appropriate concentration corresponding to the greatest lowering of cell viability was established, we proceeded with the 3D U-118 and 3D U-87 cell assays. To produce 3D U-118 and 3D U-87 cells, we used the hanging drop method. Briefly, 10,000 cells per drop were placed in the lid of a 100 mm dish, creating a hydration chamber by placing PBS in the dish bottom. After incubating for 48 h at 37 °C/5% CO2, the aggregates were transferred to a 48-well plate (5 spheroids per well: approximately 50,000 cells/well). The 3D cells were treated every 24 h for 3 days. Each treatment was conducted on 10 spheroids: approximately 100,000 cells for each experimental class: 1) control; 2) NF-t; 3) NF-TMZ (10 μM); 4) free TMZ (10 μM). At the end of the incubation time, a cell viability assay was performed with using the PrestoBlue assay: the cells were incubated for 90 min, according to the manufacturer’s protocol. At the end of the incubation time, we measured the absorbance at 570 nm (with 600 nm as the reference wavelength) using a Bio-Tek Synergy HT Microplate reader.

[4] = test system: U-118 MG; test: PrestoBlue cell viability, 2D U-118; assay type: cell-based, human
Description: (§3) Glioblastoma/astrocytoma U-87 MG (U-87) and glioma U-118 MG (U-118) cell lines derived from the human brain were plated in 25 cm^2 flasks. They were grown individually in Dulbecco’s modified eagle’s medium high glucose (DMEM), supplemented with fetal bovine serum (FBS, 10%), penicillin/streptomycin (P/S, 100 U/mL), and L-glutamine (L/GLUT, 2 mM, Sigma-Aldrich), in a humidified incubator (37 °C, 5% CO2). At 70% confluence, cells were individually detached with a 0.25% solution of trypsin-EDTA.
(§4) For 2D experiments, U-118 and U-87 cells were seeded in 48-well plates, at approximately 20,000 cells per well in DMEM culture medium with 10% FBS, under standard cell culture conditions (5% CO2, 37 °C). Once the cells were attached, they were treated for 24, 48, and 72 h with 1) NF-TMZ carrying TMZ at different concentrations: 2.5, 5, 7.5, and 10 μM; 2) NF-t; 3) free TMZ at different concentrations (0, 10, 100, and 250 μM). […] At the end of the incubation time, a cell viability assay was performed using the PrestoBlue assay: the cells were incubated for 1 h according to the manufacturer’s protocol, and then absorbance was measured at 570 nm (with 600 nm as the reference wavelength) using a Bio-Tek Synergy HT Microplate reader.

[5] = test system: U87 MG spheroids; test: Spheroid shape descriptors (Fiji), U87 MG; assay type: cell-based, human
Description: as §1
(§5) To evaluate shape descriptors, 10 spheroids for each formulation were imaged and analyzed by Fiji software (Table 4).
(§6) Table 4 was obtained using Fiji software, for U-118 and U-87 spheroids treated with NF-TMZ, free TMZ, and NF-t, compared with controls (no treatment), ***p < 0.001. Circularity was calculated as [drawing 3] . Values of 1.0 indicate a perfect circle; while as the value approaches 0.0, it indicates an increasingly elongated shape. Feret’s diameter was the maximum caliper of the object, also known as the longest distance between any two points along the selection boundary. The minimum caliper diameter is indicated as Min Feret. The aspect ratio of the particle’s fitted ellipse was calculated as [drawing 4] and is indicated as AR. Roundness was calculated as 4 [drawing 5] and is the inverse of AR. Shape descriptors describe the eventual changes in spheroid morphology following treatment.

[6] = test system: human brain microvascular endothelial cells (HBMEC); test: PrestoBlue cell viability, HBMEC; assay type: cell-based; conditions: treated every 24 h for 3 days, TMZ 10 μM
Description: To verify whether NF-t or NF-TMZ influenced healthy brain endothelial cells constitutively expressing EGFRs, the experiment described above was conducted on human brain microvascular endothelial cells (HBMEC) and brain endothelial cells (bEnd.3) to assess their effects . Cells were seeded in a 96-well plate (15,000 cells per well) in their appropriate culture medium. After 24 h, cells were treated likewise with U-118 and U-87 cells with 10 μM TMZ, both conjugated and unconjugated with NF-t. The control was performed on cells cultured only in the medium. Under the same conditions as for 2D cells, the PrestoBlue assay was performed. […] TMZ release from NF-TMZ was evaluated using matrix metalloproteinase-9 (MMP-9). In particular, NF-TMZ was prepared as reported before and hydrated in the following buffer solution: 50 mM HEPES, 200 mM NaCl, 10 mM CaCl2, and 1 mM ZnCl2, at pH 7. The MMP-9 was preactivated with APMA 100 μM and Tris-HCl 50 mM (pH 7.2) and was left at 37 °C for 3 h.[33],[35] Once activated, MMP-9 was added to NF-TMZ and the culture medium at a final concentration of 40 nM; and cells were incubated for 72 h.

[7] = cited from earlier work
Text: GBM is the most aggressive type of brain cancer, with a 5-year survival rate of less than 5% and a median survival period of 12–15 months.[9],[10] The standard treatment, consisting of surgery followed by chemotherapy with temozolomide (TMZ) and radiation therapy, marginally improves survival.

[8] = test system: U118 MG spheroids; test: Spheroid shape descriptors (Fiji), U118 MG; assay type: cell-based, human
Description: as §1, §5, §6

[9] = test system: U-118 MG; conditions: U-118, 72 h, same experimental conditions; cited from earlier work
Description: In 2D experiments, we observed a remarkable effect on U-118 cells with all nanofibers carrying TMZ at different concentrations, which increased proportionally with the concentration. In particular, treatment with NF-TMZ (carrying TMZ at a concentration of 10 μM) caused a decrease in cell viability at 72 h by more than 40%, whereas a similar decrease (under the same experimental conditions) is reported in the literature with a TMZ concentration of 100 μM.[41] U-87 cells responded less to the treatment, but we still observed a reduction in cell viability of 30%. Indeed, the experiments performed ...

[10] = test system: 3D U-118; test: Annexin V-FITC/Propidium Iodide assay, 3D U-118; assay type: cell-based, human; conditions: 3D U-118, 24 h, TMZ 10 μM
Description: as §1

[11] = test system: U-87 MG; test: PrestoBlue cell viability, 2D U-87; assay type: cell-based, human
Description: as §3, §4

[12] = test system: 3D U-87; test: PrestoBlue viability on 3D dynamic in vitro BBB model, 3D U-87; assay type: cell-based, human; conditions: 3D U-87 in lower chamber, injection into upper chamber, TMZ 10 μM, 72 h
Description: as §2

[13] = U87 MG spheroids, 10 spheroids per formulation, Fiji
[14] = U118 MG spheroids, 10 spheroids per formulation, Fiji, ***p < 0.001 vs controls

SMILES: Cn1nnc2c(C(N)=O)ncn2c1=O [TMZ, temozolomide]
- apoptotic cells (Annexin V) compared to the control ([1]; 3D U-87, 24 h): four-time increasing level
- necrotic cells (PI) ([1]; 3D U-87, 48 h): increase in necrotic cells
- lower viability compared with the control [2]: < 20%
- decrease in viability compared to the control [3]: 55%
- free TMZ concentration giving a similar effect as NF-TMZ (TMZ 10 μM) [4]: 100 to 250 µM
- spheroid surface area compared to control and NF-t ([5]; 3D U-87): significantly lower
- Circularity [5, 13]: 0.280
- Feret’s diameter [5, 13]: 841.910
- Min Feret [5, 13]: 612.895
- AR ([5]; U87 MG spheroids, aspect ratio of fitted ellipse, Fiji): 1.404
- Round ([5]; U87 MG spheroids, roundness, Fiji): 0.732
- cell viability versus control [6]: no significant difference
- extravasation from blood to brain [7]: ~20%
- plasma half-life [7]: 2 h
- water solubility [7]: poor water solubility
- spheroid surface area compared to control and NF-t ([8]; 3D U-118): significantly lower
- Circularity ([8]; U118 MG spheroids, 10 spheroids per formulation, Fiji): 0.425
- Feret’s diameter [8, 14]: 512.096
- Min Feret [8, 14]: 397.785
- AR ([8]; U118 MG spheroids, aspect ratio of fitted ellipse, Fiji): 1.298
- Round ([8]; U118 MG spheroids, roundness, Fiji): 0.802
- TMZ concentration reported for a similar decrease in cell viability [9]: 100 µM
- apoptotic cells (Annexin V) [10]: initial burst of apoptosis
- free TMZ concentration giving a similar effect as NF-TMZ (TMZ 10 μM) ([11]; 2D U-87): 100 to 250 µM
- concentrations at which TMZ acted on cell survival ([11]; 2D U-87, 24- and 48-h treatments): ≥ 100 µM
- lower viability compared with the control [12]: 13%
